Structures can show the parent of a compound that is named as a salt.

The assay deals with T1, human HSL (Homo sapiens, UniProt Q05469).
T1 construct: generate a full length human HSL ORF with a 3′-His6 tag; His6 (C); made in house; host or cells: High 5 insect cells (baculovirus, pFast-BAC)
T1 sequence (Q05469 1-1076): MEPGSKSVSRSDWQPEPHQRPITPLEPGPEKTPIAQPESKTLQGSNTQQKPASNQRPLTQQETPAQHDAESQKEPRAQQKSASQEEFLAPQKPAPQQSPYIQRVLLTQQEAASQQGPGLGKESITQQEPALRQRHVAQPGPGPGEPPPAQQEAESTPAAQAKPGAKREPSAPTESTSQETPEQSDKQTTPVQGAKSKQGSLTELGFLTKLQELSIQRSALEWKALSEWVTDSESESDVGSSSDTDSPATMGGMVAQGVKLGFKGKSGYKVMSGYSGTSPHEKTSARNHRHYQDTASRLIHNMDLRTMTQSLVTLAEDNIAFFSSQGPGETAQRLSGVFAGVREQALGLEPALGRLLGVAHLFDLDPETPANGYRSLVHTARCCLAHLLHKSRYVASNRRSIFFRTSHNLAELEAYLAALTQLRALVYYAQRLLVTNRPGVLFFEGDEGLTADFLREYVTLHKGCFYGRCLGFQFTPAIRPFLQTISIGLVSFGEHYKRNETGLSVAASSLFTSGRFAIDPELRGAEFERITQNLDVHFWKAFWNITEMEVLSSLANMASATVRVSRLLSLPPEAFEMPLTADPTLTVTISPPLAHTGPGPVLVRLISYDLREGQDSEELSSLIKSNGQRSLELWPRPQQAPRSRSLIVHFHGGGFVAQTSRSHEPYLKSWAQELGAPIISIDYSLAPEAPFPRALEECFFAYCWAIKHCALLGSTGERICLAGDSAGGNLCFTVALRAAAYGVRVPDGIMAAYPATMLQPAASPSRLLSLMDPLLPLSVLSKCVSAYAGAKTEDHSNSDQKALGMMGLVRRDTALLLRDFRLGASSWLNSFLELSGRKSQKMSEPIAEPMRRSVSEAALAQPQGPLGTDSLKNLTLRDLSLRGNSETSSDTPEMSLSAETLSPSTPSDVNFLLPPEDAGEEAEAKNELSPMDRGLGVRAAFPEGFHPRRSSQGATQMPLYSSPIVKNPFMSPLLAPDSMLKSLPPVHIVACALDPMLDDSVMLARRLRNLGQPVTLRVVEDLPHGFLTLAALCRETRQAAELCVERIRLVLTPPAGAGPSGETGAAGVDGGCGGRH
The assay is described as follows: Human Hormone-Sensitive Lipase (HSL) enzyme inhibition assay (colorimetric, DMPT substrate). The format is biochemical. The conditions noted are these: read-out: HSL hum IC50. As to the method:
Production of Human Full Length Hormone Sensitive Lipase-His^6
1) Cloning: cDNA was prepared from commercial human brain polyA+ RNA and used as a template in overlapping PCR to generate a full length human HSL ORF with a 3′-His6 tag. This full length insert was cloned into the pFast-BAC vector and the DNA-sequence of several single clones was verified. DNA from a correct full length clone with the 3′His6 tag was used to transform the E. coli strain DH10BAC. Resulting bacmid DNA was used to generate a titered baculovirus stock for protein generation. The sequence of the encoded HSL conforms to Swissprot entry Q05469, with the additional C-terminal His6-tag.
2) Protein purification: Culture: 5.5 L, High 5 cells expressing human full length HSL-His^6, 48 hr., containing 25 μM E-64. Cell count: […], 90% viable.
Cells were thawed. On ice, cells were suspended in Base Buffer containing 10% glycerol, 25 mM Tris-Cl, 300 mM NaCl, 10 mM imidazole, 10 mM 2-mercaptoethanol, 2 μg pepstatin/ml, 2 μg leupeptin/ml, 2 μg antipain/ml, pH 8.0 at 4° C. in a final volume of 475 ml with 3.75×10^7 cells/ml. […] was done at 3×30 sec., Lubrol PX was added to 0.2% final concentration followed by stirring for 15 min. at 4° C. and centrifugation at 25 k×g, 60 min., 4° C. Soluble proteins were mixed with 60 ml of pre-washed and equilibrated Ni-NTA Agarose (Qiagen 30210) followed by tumbling end-over-end, 45 min., 4° C., centrifugation 1000 rpm 5 min and letting resin settle 5 min. Supernatant was removed, the resin washed in the centrifuge vessel using 5 volumes of Base Buffer containing 0.2% Lubrol PX. Centrifugation was done again, then the supernatant discarded. The resin was poured onto a 0.8 μm membrane in a disposable filter unit (Nalge 450-0080), and washed with 5 volumes of Base Buffer containing 0.2% Lubrol PX. It was then washed with 30 volumes of Base Buffer containing 60 mM imidazole pH 7.5 at 4° C. The protein was eluted with 5 volumes of 25 mM Tris-Cl, 300 mM NaCl, 200 mM imidazole, 10 mM 2-mercaptoethanol, pH 7.5 at 4° C. by tumbling resin with buffer end-over-end, 30 min., 4° C. The resin was captured on a 0.2 μm membrane disposable filter unit (Millipore SCGP U02 RE) and the elute collected in the reservoir. The elute was concentrated using a 30 k MWCO centrifugal filter device (Sartorius Vivascience Vivacell 100, VC1022), to 20 ml. It was then dialyzed overnight at 4° C., two times against 2 L of 10% glycerol, 25 mM Tris-Cl, 300 mM NaCl, 0.2 mM EDTA, 0.2 mM DTT, pH 7.5 at 4° C. The protein was filtered using a 0.22 μm disposable filter unit (Millipore SCGP00525). The protein concentration was calculated from absorbance at 280 nm, using 280=0.67 cm-1 mg-1. Yield was 235 mg, total. The protein was stored at −80° C. Human Hormone-Sensitive Lipase (HSL) enzyme inhibition assay:
HSL enzyme activity was measured by a colorimetric assay using 2,3-dimercapto-1-propanol tributyrate (Aldrich, St. Louis, Mo.) as a substrate. Typically, 1.5 mM 2,3-dimercapto-1-propanol tributyrate (DMPT) in 100 mM MOPS, pH 7.2, 0.2 mg/ml fatty acid-free BSA was prepared by sonication at 4° C. to homogenous suspension. Test compounds (2 mM stock in DMSO) were diluted 3 fold in series in DMSO. Compound solutions were diluted 24 fold in 1.5 mM DMPT containing solution and 18 ul per well was added to 384-well microplates (Corning Costar). Twelve microliters per well of human HSL (15 ug/ml) was added and the reaction mixture was incubated at 37° C. for 20 minutes. Six microliters of 12 mM dithio-bis-(2-nitrobenzoic acid) (DTNB) in DMSO plus 1.2% SDS and 0.6% Triton X-100 were added and the mixture was incubated at room temperature for 15 minutes. Product production was monitored by reading absorbance at 405 nm on an Envision Reader (PerkinElmer Life and Analytical Sciences, Shelton, Conn.).
`CCc1ccc(NC(=O)C2(N)CCN(S(=O)(=O)c3ccc(Cl)nc3)CC2)cc1` [Example 148, 4-Amino-1-(6-chloro-pyridine-3-sulfonyl)-piperidine-4-carboxylic acid (4-ethyl-phenyl)-amide]: the IC50 was determined as 0.61 µM.

On to `CC(C)c1ccc(NC(=O)C2(O)CCN(Cc3ccc(F)cc3)CC2)cc1` [Example 2, 1-(4-Fluoro-benzyl)-4-hydroxy-piperidine-4-carboxylic acid (4-isopropyl-phenyl)-amide], for which the IC50 was 0.27 µM.

For `NC1(C(=O)Nc2ccc(OC(F)(F)F)cc2)CCN(S(=O)(=O)c2ccccc2Cl)CC1` [Example 103, 4-Amino-1-(2-chloro-benzenesulfonyl)-piperidine-4-carboxylic acid (4-trifluoromethoxy-phenyl)-amide], the IC50 came out at 0.03 µM.

With `Cc1ccc(S(=O)(=O)N2CCC(O)(C(=O)Nc3ccc(OC(F)(F)F)cc3)CC2)cc1` [Example 60, 4-Hydroxy-1-(toluene-4-sulfonyl)-piperidine-4-carboxylic acid (4-trifluoromethoxy-phenyl)-amide], the IC50 was found to be 0.22 µM.

Consider `CC(C)c1ccc(NC(=O)N2CCC(N)(C(=O)Nc3ccc(C(C)C)cc3)CC2)cc1` [Example 107, 4-Amino-piperidine-1,4-dicarboxylic acid bis-[(4-isopropyl-phenyl)-amide]; hydrochloride], for which the IC50 was 0.08 µM.

Regarding `CC(C)CS(=O)(=O)N1CCC(O)(C(=O)Nc2ccc(OC(F)(F)F)cc2)CC1` [Example 54, 4-Hydroxy-1-(2-methyl-propane-1-sulfonyl)-piperidine-4-carboxylic acid (4-trifluoromethoxy-phenyl)-amide], the IC50 is 0.66 µM.

Take `Cc1ccc(S(=O)(=O)N2CCC(N)(C(=O)Nc3ccc(C(C)C)cc3)CC2)cc1` [Example 78, 4-Amino-1-(toluene-4-sulfonyl)-piperidine-4-carboxylic acid (4-isopropyl-phenyl)-amide; hydrochloride]: the IC50 came out at 0.07 µM.

Consider `O=C(Nc1ccc(F)cc1)N1CCC(O)(C(=O)Nc2ccc(OC(F)(F)F)cc2)CC1` [Example 52, 4-Hydroxy-piperidine-1,4-dicarboxylic acid 1-[(4-fluoro-phenyl)-amide] 4-[(4-trifluoromethoxy-phenyl)-amide]], for which the IC50 came out at 0.95 µM.

Consider `O=C(Nc1ccc(OC(F)(F)F)cc1)C1(O)CCN(S(=O)(=O)c2cccs2)CC1` [Example 57, 4-Hydroxy-1-(thiophene-2-sulfonyl)-piperidine-4-carboxylic acid (4-trifluoromethoxy-phenyl)-amide], for which the IC50 came out at 0.33 µM.

As for `COC1(C(=O)Nc2ccc(C(C)(C)C)cc2)CCN(S(=O)(=O)c2ccccc2Cl)CC1` [Example 76, 1-(2-Chloro-benzenesulfonyl)-4-methoxy-piperidine-4-carboxylic acid (4-tert-butyl-phenyl)-amide], the IC50 was 0.53 µM.

In the case of `CC(C)c1ccc(NC(=O)C2(N)CCN(Cc3ccccc3Cl)CC2)cc1` [Example 110, 4-Amino-1-(2-chloro-benzyl)-piperidine-4-carboxylic acid (4-isopropyl-phenyl)-amide; hydrochloride], the IC50 worked out at 0.08 µM.

Take `CC(C)c1ccc(NC(=O)C2(N)CCN(C(=O)Nc3ccc(F)cc3)CC2)cc1` [Example 106, 4-Amino-piperidine-1,4-dicarboxylic acid 1-[(4-fluoro-phenyl)-amide]-4-[(4-isopropyl-phenyl)-amide]; hydrochloride]: the IC50 is 0.21 µM.

As to `CCCCc1ccc(S(=O)(=O)N2CCC(N)(C(=O)Nc3ccc(CC)cc3)CC2)cc1` [Example 141, 4-Amino-1-(4-butyl-benzenesulfonyl)-piperidine-4-carboxylic acid (4-ethyl-phenyl)-amide], the IC50 was 0.09 µM.

On to `CCc1ccc(NC(=O)C2(N)CCN(Cc3ccccc3C)CC2)cc1` [Example 152, 4-Amino-1-(2-methyl-benzyl)-piperidine-4-carboxylic acid (4-ethyl-phenyl)-amide], for which the IC50 was determined as 0.12 µM.

Consider `CCc1ccc(NC(=O)C2(N)CCN(S(=O)(=O)c3ccc(OC(F)(F)F)cc3)CC2)cc1` [Example 138, 4-Amino-1-(4-trifluoromethoxy-benzenesulfonyl)-piperidine-4-carboxylic acid (4-ethyl-phenyl)-amide], for which the IC50 stood at 0.31 µM.

As to `CCc1ccc(NC(=O)C2(N)CCN(S(=O)(=O)c3ccccc3C)CC2)cc1` [Example 135, 4-Amino-1-(toluene-2-sulfonyl)-piperidine-4-carboxylic acid (4-ethyl-phenyl)-amide], the IC50 was determined as 0.08 µM.

Regarding `Cc1ccc(S(=O)(=O)N2CCC(N)(C(=O)Nc3ccc(OC(F)(F)F)cc3)CC2)cc1` [Example 80, 4-Amino-1-(toluene-4-sulfonyl)-piperidine-4-carboxylic acid (4-trifluoromethoxy-phenyl)-amide; hydrochloride], the IC50 was 0.05 µM.

Turning to `CCc1ccc(NC(=O)C2(N)CCN(C(c3ccccc3)c3ccccc3)CC2)cc1` [Example 159, 4-Amino-1-benzhydryl-piperidine-4-carboxylic acid (4-ethyl-phenyl)-amide], the IC50 worked out at 0.15 µM.

`CN(C(=O)C1(O)CCN(S(=O)(=O)c2cccs2)CC1)c1ccc(OC(F)(F)F)cc1` [Example 66, 4-Hydroxy-1-(thiophene-2-sulfonyl)-piperidine-4-carboxylic acid methyl-(4-trifluoromethoxy-phenyl)-amide]: the IC50 came to 0.2 µM.

On to `CC(C)(C)c1ccc(NC(=O)C2(O)CCN(Cc3ccccc3F)CC2)cc1` [Example 45, 1-(2-Fluoro-benzyl)-4-hydroxy-piperidine-4-carboxylic acid (4-tert-butyl-phenyl)-amide], for which the IC50 worked out at 0.08 µM.

The IC50 is the concentration that inhibits the measured activity by half.

Values taken from patent US8399676B2, “Piperidine derivatives” (Hoffman-La Roche Inc., priority 2009, dated 2013).
